Experimental findings from PubChem BioAssay (NCI) are described below.

The test system of the assay is P388 leukemia. In words: NCI tumour cell line growth inhibition, 48 h.

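Cultured in 96-well plates, cells were exposed to test compound for 48 hours across five concentrations. TGI denotes the concentration required for complete inhibition of growth.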

The compound `C=C(C)C(=O)NC(N)=NC#N` had a TGI of 13.9 µM.
